Laboratory results taken from patent US20260070945A1, “MACROCYCLIC IMMUNOMODULATORS” (Bristol-Myers Squibb Company, priority 2022, published 2026).
*1 amine or outer side, *2 acyl side, *3 side chain or, on linkers, in order; H or OH if unused. Where a SMILES comes first, the peptide text is derived from it. Bridges are numbered along the chain shown (N, C = ends). [ ]: non-standard residue; d: D form. The star is where a group is joined. ξ: configuration not given here. Trp(1-Me) = Cn1cc(C[C@H](N)C(=O)O)c2ccccc21; Bip = N[C@@H](Cc1ccc(-c2ccccc2)cc1)C(=O)O; Phe(3-Me) = Cc1cccc(C[C@H](N)C(=O)O)c1; γGlu = O=C(O)[C@H](CCC(=O)[*:2])N[*:1]; NMeAEEA = CN(CCOCCOCC(=O)[*:2])[*:1]; 4Pal = N[C@@H](Cc1ccncc1)C(=O)O; Cha = N[C@@H](CC1CCCCC1)C(=O)O; Cit = NC(=O)NCCC[C@H](N)C(=O)O; Ile(3ξ) = CCC(C)[C@H](N)C(=O)O; Thr(3ξ) = CC(O)[C@H](N)C(=O)O; 12Ado = NCCCCCCCCCCCC(=O)O; Carboxymethyl = O=C(O)C*; NMeA = CN[C@@H](C)C(=O)O; Orn = NCCC[C@H](N)C(=O)O; Aun = NCCCCCCCCCCC(=O)O; Dab = NCC[C@H](N)C(=O)O; Dap = NC[C@H](N)C(=O)O; AEEA = NCCOCCOCC(=O)O

The compounds below were run against T1, PD-1/PD-L1 interaction (PE-labeled human PD-L1-Ig binding to Jurkat cell line over-expressing human PD-1) (Homo sapiens, UniProt Q15116) (assay: Jurkat-PD-1 Cell Binding High-Content Screening Assay (CBA)). Conditions: Jurkat-hPD-1 cells, PE-labeled PD-L1-Ig 20 nM final; read-out: Jurkat HPD1 PDL1 IC50.
T1 construct: expressed in transfected cells; host or cells: Jurkat
T1 sequence (Q15116 25-288): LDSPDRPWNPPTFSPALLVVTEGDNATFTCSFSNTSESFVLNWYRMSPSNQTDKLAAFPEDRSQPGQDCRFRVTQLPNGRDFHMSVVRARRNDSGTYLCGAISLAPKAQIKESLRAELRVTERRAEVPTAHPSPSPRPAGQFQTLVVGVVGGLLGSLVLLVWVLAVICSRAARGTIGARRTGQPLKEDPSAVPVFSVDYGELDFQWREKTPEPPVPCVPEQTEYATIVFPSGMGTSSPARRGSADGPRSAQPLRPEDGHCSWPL
Outline: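 Cells 8×10^3/well, DMEM + 10% FCS; cpd 2 h, 37 °C; PE–PD-L1-Ig 20 nM final, 1 h; PFA fix + Hoechst 33342, 3× dPBS wash; high-content imager.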

Structure (SMILES)	IC50 [µM]
CCC(C)[C@@H]1NC(=O)[C@H](Cc2ccc(-c3ccccc3)cc2)NC(=O)[C@H](C(C)C)NC(=O)[C@H](Cc2c[nH]c3ccccc23)NC(=O)[C@H](CC(=O)O)NC(=O)[C@H](Cc2ccc(OCC(=O)O)cc2)NC(=O)[C@H](C(C)O)NC(=O)CSC[C@@H](C(=O)N[C@@H](CCCN)C(=O)N[C@@H](CO)C(=O)NCCCCCCCCCCCC(=O)O)NC(=O)[C@H](CCCN)NC(=O)[C@H](C(C)C)NC(=O)[C@H](CC2CCCCC2)NC(=O)[C@H](CCN)NC(=O)[C@@H](CC(C)C)NC(=O)[C@H](C)N(C)C1=O (stereo partly drawn) [Example 2408] ({CH2CO}-[Thr(3ξ)]Y(Carboxymethyl)DWV[Bip][Ile(3ξ)][NMeA][dL][Dab][Cha]V[Orn]C[Orn]S[12Ado]-OH; thioether N-14)	0.228
CCC(C)[C@@H]1NC(=O)[C@H](Cc2ccc(-c3ccccc3)cc2)NC(=O)[C@H](C(C)C)NC(=O)[C@H](Cc2c[nH]c3ccccc23)NC(=O)[C@H](CC(=O)O)NC(=O)[C@H](Cc2ccc(OCC(=O)O)cc2)NC(=O)[C@H](CN)NC(=O)CSC[C@@H](C(=O)N[C@@H](CCCN)C(=O)N[C@@H](CO)C(=O)NCCCCCCCCCCCC(=O)O)NC(=O)[C@H](C(C)O)NC(=O)[C@H](C(C)C)NC(=O)[C@H](CC2CCCCC2)NC(=O)[C@H](CCN)NC(=O)[C@@H](CC(C)C)NC(=O)[C@H](C)N(C)C1=O (stereo partly drawn) [Example 2409] ({CH2CO}-[Dap]Y(Carboxymethyl)DWV[Bip][Ile(3ξ)][NMeA][dL][Dab][Cha]V[Thr(3ξ)]C[Orn]S[12Ado]-OH; thioether N-14)	0.109
CCC(C)[C@@H]1NC(=O)[C@H](Cc2ccc(-c3ccccc3)cc2)NC(=O)[C@H](C(C)C)NC(=O)[C@H](Cc2c[nH]c3ccccc23)NC(=O)[C@H](CC(=O)O)NC(=O)[C@H](Cc2ccc(OCC(=O)O)cc2)NC(=O)[C@H](C(C)O)NC(=O)CSC[C@@H](C(=O)N[C@@H](CCCN)C(=O)N[C@@H](CO)C(=O)NCCCCCCCCCCCC(=O)O)NC(=O)[C@H](C(C)O)NC(=O)[C@H](C(C)C)NC(=O)[C@H](CC2CCCCC2)NC(=O)[C@H](CCN)NC(=O)[C@@H](CC(C)C)NC(=O)[C@H](C)N(C)C1=O (stereo partly drawn) [Example 2410] ({CH2CO}-[Thr(3ξ)]Y(Carboxymethyl)DWV[Bip][Ile(3ξ)][NMeA][dL][Dab][Cha]V[Thr(3ξ)]C[Orn]S[12Ado]-OH; thioether N-14)	0.108
CC(=O)NCCCC[C@@H]1NC(=O)[C@H](CC2CCCCC2)NC(=O)[C@H](CCN)NC(=O)[C@@H](CC(C)C)NC(=O)[C@H](C)N(C)C(=O)[C@H](CCCNC(N)=O)NC(=O)[C@H](Cc2ccc(-c3ccccc3)cc2)NC(=O)[C@H](Cc2ccc(O)cc2)NC(=O)[C@H](Cc2cccc(C)c2)NC(=O)[C@H](CC(=O)O)NC(=O)[C@H](Cc2ccc(OCC(=O)O)cc2)NC(=O)[C@H](Cc2ccncc2)NC(=O)CSC[C@@H](C(=O)N[C@@H](CCCN)C(=O)N[C@@H](CO)C(=O)NCCCCCCCCCCCC(=O)O)NC(=O)[C@H](C(C)O)NC1=O (stereo partly drawn) [Example 2411] ({CH2CO}-[4Pal]Y(Carboxymethyl)D[Phe(3-Me)]Y[Bip][Cit][NMeA][dL][Dab][Cha]K(Ac)[Thr(3ξ)]C[Orn]S[12Ado]-OH; thioether N-14)	0.0381
Cc1cccc(C[C@@H]2NC(=O)[C@H](CC(=O)O)NC(=O)[C@H](Cc3ccc(OCC(=O)O)cc3)NC(=O)[C@H](C(C)O)NC(=O)CSC[C@@H](C(=O)N[C@@H](CCCN)C(=O)N[C@@H](CO)C(=O)NCCCCCCCCCCCC(=O)O)NC(=O)[C@H](C(C)O)NC(=O)[C@H](C(C)C)NC(=O)[C@H](CC3CCCCC3)NC(=O)[C@H](CCN)NC(=O)[C@@H](CC(C)C)NC(=O)[C@H](C)N(C)C(=O)[C@H](CCCNC(N)=O)NC(=O)[C@H](Cc3ccc(-c4ccccc4)cc3)NC(=O)[C@H](C(C)C)NC2=O)c1 (stereo partly drawn) [Example 2412] ({CH2CO}-[Thr(3ξ)]Y(Carboxymethyl)D[Phe(3-Me)]V[Bip][Cit][NMeA][dL][Dab][Cha]V[Thr(3ξ)]C[Orn]S[12Ado]-OH; thioether N-14)	0.0129
Cc1cccc(C[C@@H]2NC(=O)[C@H](CC(=O)O)NC(=O)[C@H](Cc3ccc(OCC(=O)O)cc3)NC(=O)[C@H](CN)NC(=O)CSC[C@@H](C(=O)N[C@@H](CCCN)C(=O)N[C@@H](CO)C(=O)NCCCCCCCCCCCC(=O)O)NC(=O)[C@H](C(C)O)NC(=O)[C@H](C(C)C)NC(=O)[C@H](CC3CCCCC3)NC(=O)[C@H](CCN)NC(=O)[C@@H](CC(C)C)NC(=O)[C@H](C)N(C)C(=O)[C@H](CCCNC(N)=O)NC(=O)[C@H](Cc3ccc(-c4ccccc4)cc3)NC(=O)[C@H](C(C)C)NC2=O)c1 (stereo partly drawn) [Example 2413] ({CH2CO}-[Dap]Y(Carboxymethyl)D[Phe(3-Me)]V[Bip][Cit][NMeA][dL][Dab][Cha]V[Thr(3ξ)]C[Orn]S[12Ado]-OH; thioether N-14)	0.0165
Cc1cccc(C[C@@H]2NC(=O)[C@H](CC(=O)O)NC(=O)[C@H](Cc3ccc(OCC(=O)O)cc3)NC(=O)[C@H](CN)NC(=O)CSC[C@@H](C(=O)N(C)CCOCCOCC(=O)NCCCCCCCCCCC(=O)O)NC(=O)[C@H](CCCN)NC(=O)[C@H](C(C)C)NC(=O)[C@H](CC3CCCCC3)NC(=O)[C@H](CCN)NC(=O)[C@@H](CC(C)C)NC(=O)[C@H](C)N(C)C(=O)[C@H](C(C)C)NC(=O)[C@H](Cc3ccc(-c4ccccc4)cc3)NC(=O)[C@H](C(C)C)NC2=O)c1 [Example 2414] ({CH2CO}-[Dap]Y(Carboxymethyl)D[Phe(3-Me)]V[Bip]V[NMeA][dL][Dab][Cha]V[Orn]C[NMeAEEA][Aun]-OH; thioether N-14)	0.045
CC(=O)NCCCC[C@@H]1NC(=O)[C@H](Cc2ccc(-c3ccccc3)cc2)NC(=O)[C@H](C(C)C)NC(=O)[C@H](Cc2cccc(C)c2)NC(=O)[C@H](CC(=O)O)NC(=O)[C@H](Cc2ccc(OCC(=O)O)cc2)NC(=O)[C@H](CN)NC(=O)CSC[C@@H](C(=O)N(C)CCOCCOCC(=O)NCCCCCCCCCCC(=O)O)NC(=O)[C@H](CCCN)NC(=O)[C@H](C(C)C)NC(=O)[C@H](CC2CCCCC2)NC(=O)[C@H](CCN)NC(=O)[C@@H](CC(C)C)NC(=O)[C@H](C)N(C)C1=O [Example 2415] ({CH2CO}-[Dap]Y(Carboxymethyl)D[Phe(3-Me)]V[Bip]K(Ac)[NMeA][dL][Dab][Cha]V[Orn]C[NMeAEEA][Aun]-OH; thioether N-14)	0.0412
CCC(C)[C@@H]1NC(=O)[C@H](Cc2ccc(-c3ccccc3)cc2)NC(=O)[C@H](C(C)C)NC(=O)[C@H](Cc2cn(C)c3ccccc23)NC(=O)[C@H](CC(=O)O)NC(=O)[C@H](Cc2ccc(OCC(=O)O)cc2)NC(=O)[C@H](C(C)O)NC(=O)CSC[C@@H](C(=O)N[C@@H](CCCN)C(=O)NCCCCCCCCCCC(=O)O)NC(=O)[C@H](C(C)O)NC(=O)[C@H](C(C)C)NC(=O)[C@H](CC2CCCCC2)NC(=O)[C@H](CCN)NC(=O)[C@@H](CC(C)C)NC(=O)[C@H](C)N(C)C1=O (stereo partly drawn) [Example 2416] ({CH2CO}-[Thr(3ξ)]Y(Carboxymethyl)D[Trp(1-Me)]V[Bip][Ile(3ξ)][NMeA][dL][Dab][Cha]V[Thr(3ξ)]C[Orn][Aun]-OH; thioether N-14)	0.57
CCC(C)[C@@H]1NC(=O)[C@H](Cc2ccc(-c3ccccc3)cc2)NC(=O)[C@H](C(C)C)NC(=O)[C@H](Cc2c[nH]c3ccccc23)NC(=O)[C@H](CC(=O)O)NC(=O)[C@H](Cc2ccc(OCC(=O)O)cc2)NC(=O)[C@H](C(C)O)NC(=O)CSC[C@@H](C(=O)N[C@@H](CCCN)C(=O)N[C@@H](CCC(=O)NCCCCCCCCCCCC(=O)O)C(=O)O)NC(=O)[C@H](C(C)O)NC(=O)[C@H](C(C)C)NC(=O)[C@H](CC2CCCCC2)NC(=O)[C@H](CCN)NC(=O)[C@@H](CC(C)C)NC(=O)[C@H](C)N(C)C1=O (stereo partly drawn) [Example 2417] ({CH2CO}-[Thr(3ξ)]Y(Carboxymethyl)DWV[Bip][Ile(3ξ)][NMeA][dL][Dab][Cha]V[Thr(3ξ)]C[Orn][γGlu][12Ado]-OH; thioether N-14)	0.0323
CCC(C)[C@@H]1NC(=O)[C@H](Cc2ccc(-c3ccccc3)cc2)NC(=O)[C@H](C(C)C)NC(=O)[C@H](Cc2c[nH]c3ccccc23)NC(=O)[C@H](CC(=O)O)NC(=O)[C@H](Cc2ccc(OCC(=O)O)cc2)NC(=O)[C@H](C(C)O)NC(=O)CSC[C@@H](C(=O)N[C@@H](CCCN)C(=O)N[C@@H](CCC(=O)NCCCCCCCCCCCC(=O)O)C(=O)O)NC(=O)[C@H](C(C)O)NC(=O)[C@H](C(C)C)NC(=O)[C@H](CC2CCCCC2)NC(=O)[C@H](CCN)NC(=O)[C@@H](CC(C)C)NC(=O)[C@H](C)N(C)C1=O (stereo partly drawn) [Example 2418] ({CH2CO}-[Thr(3ξ)]Y(Carboxymethyl)DWV[Bip][Ile(3ξ)][NMeA][dL][Dab][Cha]V[Thr(3ξ)]C[Orn][γGlu][12Ado]-OH; thioether N-14)	0.0468
CC(=O)NCCCC[C@@H]1NC(=O)[C@H](Cc2ccc(-c3ccccc3)cc2)NC(=O)[C@H](Cc2ccc(O)cc2)NC(=O)[C@H](Cc2cccc(C)c2)NC(=O)[C@H](CC(=O)O)NC(=O)[C@H](Cc2ccc(OCC(=O)O)cc2)NC(=O)[C@H](CCN)NC(=O)CSC[C@@H](C(=O)NCCOCCOCC(=O)NCCCCCCCCCCC(=O)O)NC(=O)[C@H](C(C)O)NC(=O)[C@H](C(C)C)NC(=O)[C@H](CC2CCCCC2)NC(=O)[C@H](CCN)NC(=O)[C@@H](CC(C)C)NC(=O)[C@H](C)N(C)C1=O (stereo partly drawn) [Example 2419] ({CH2CO}-[Dab]Y(Carboxymethyl)D[Phe(3-Me)]Y[Bip]K(Ac)[NMeA][dL][Dab][Cha]V[Thr(3ξ)]C[AEEA][Aun]-OH; thioether N-14)	0.0524
CC(=O)NCCCC[C@@H]1NC(=O)[C@H](Cc2ccc(-c3ccccc3)cc2)NC(=O)[C@H](Cc2ccc(O)cc2)NC(=O)[C@H](Cc2cccc(C)c2)NC(=O)[C@H](CC(=O)O)NC(=O)[C@H](Cc2ccc(OCC(=O)O)cc2)NC(=O)[C@H](C(C)O)NC(=O)CSC[C@@H](C(=O)NCCOCCOCC(=O)NCCCCCCCCCCC(=O)O)NC(=O)[C@H](C(C)O)NC(=O)[C@H](C(C)C)NC(=O)[C@H](CC2CCCCC2)NC(=O)[C@H](CCN)NC(=O)[C@@H](CC(C)C)NC(=O)[C@H](C)N(C)C1=O (stereo partly drawn) [Example 2420] ({CH2CO}-[Thr(3ξ)]Y(Carboxymethyl)D[Phe(3-Me)]Y[Bip]K(Ac)[NMeA][dL][Dab][Cha]V[Thr(3ξ)]C[AEEA][Aun]-OH; thioether N-14)	0.0354
